Experimental data reported in paper PMC9481151, “Discovery of new symmetrical and asymmetrical nitrile-containing 1,4-dihydropyridine derivatives as dual kinases and P-glycoprotein inhibitors: synthesis, in vitro assays, and in silico studies” (Journal of Enzyme Inhibition and Medicinal Chemistry, 2022).

Assays:
MDA-MB-231 = experiment: NCI single dose (10 µM) SRB screen; type: cell-based, human; details: breast cancer, 48 h
SF-539 = experiment: NCI single dose (10 µM) SRB screen; type: cell-based, human; details: CNS cancer, 48 h
MOLT-4 = experiment: NCI single dose (10 µM) SRB screen; type: cell-based, human; details: leukaemia, 48 h
HL-60(TB) = experiment: NCI single dose (10 µM) SRB screen; type: cell-based, human; details: leukaemia, 48 h
OVCAR-4 = experiment: NCI single dose (10 µM) SRB screen; type: cell-based, human; details: ovarian cancer, 48 h
NCI 60 cancer cell lines = experiment: NCI single dose (10 µM) SRB screen, mean over panel; type: cell-based, human; details: mean over 60 cell lines, 48 h
M14 = experiment: NCI single dose (10 µM) SRB screen; type: cell-based, human; details: melanoma, 48 h
IGROV1 = experiment: NCI single dose (10 µM) SRB screen; type: cell-based, human; details: ovarian cancer, 48 h
SF-295 = experiment: NCI single dose (10 µM) SRB screen; type: cell-based, human; details: CNS cancer, 48 h
MCF7 = experiment: NCI single dose (10 µM) SRB screen; type: cell-based, human; details: breast cancer, 48 h
A549/ATCC = experiment: NCI single dose (10 µM) SRB screen; type: cell-based, human; details: non-small cell lung cancer, 48 h
UO-31 = experiment: NCI single dose (10 µM) SRB screen; type: cell-based, human; details: renal cancer, 48 h
COLO 205 = experiment: NCI single dose (10 µM) SRB screen; type: cell-based, human; details: colon cancer, 48 h
RXF 393 = experiment: NCI single dose (10 µM) SRB screen; type: cell-based, human; details: renal cancer, 48 h
SK-MEL-2 = experiment: NCI single dose (10 µM) SRB screen; type: cell-based, human; details: melanoma, 48 h
OVCAR-3 = experiment: NCI single dose (10 µM) SRB screen; type: cell-based, human; details: ovarian cancer, 48 h
UACC-62 = experiment: NCI single dose (10 µM) SRB screen; type: cell-based, human; details: melanoma, 48 h
LOX IMVI = experiment: NCI single dose (10 µM) SRB screen; type: cell-based, human; details: melanoma, 48 h
RPMI-8226 = experiment: NCI single dose (10 µM) SRB screen; type: cell-based, human; details: leukaemia, 48 h
SNB-19 = experiment: NCI single dose (10 µM) SRB screen; type: cell-based, human; details: CNS cancer, 48 h
CCRF-CEM = experiment: NCI single dose (10 µM) SRB screen; type: cell-based, human; details: leukaemia, 48 h
MDA-MB-468 = experiment: NCI single dose (10 µM) SRB screen; type: cell-based, human; details: breast cancer, 48 h
EKVX = experiment: NCI single dose (10 µM) SRB screen; type: cell-based, human; details: non-small cell lung cancer, 48 h
SF-268 = experiment: NCI single dose (10 µM) SRB screen; type: cell-based, human; details: CNS cancer, 48 h
NCI-H23 = experiment: NCI single dose (10 µM) SRB screen; type: cell-based, human; details: non-small cell lung cancer, 48 h
A498 = experiment: NCI single dose (10 µM) SRB screen; type: cell-based, human; details: renal cancer, 48 h
NCI-H522 = experiment: NCI single dose (10 µM) SRB screen; type: cell-based, human; details: non-small cell lung cancer, 48 h
U251 = experiment: NCI single dose (10 µM) SRB screen; type: cell-based, human; details: CNS cancer, 48 h
SR = experiment: NCI single dose (10 µM) SRB screen; type: cell-based, human; details: leukaemia, 48 h
TK-10 = experiment: NCI single dose (10 µM) SRB screen; type: cell-based, human; details: renal cancer, 48 h
Staphylococcus aureus = experiment: Agar well diffusion method
HCT-116 = experiment: NCI single dose (10 µM) SRB screen; type: cell-based, human; details: colon cancer, 48 h
NCI/ADR-RES = experiment: NCI single dose (10 µM) SRB screen; type: cell-based, human; details: ovarian cancer, 48 h
T-47D = experiment: NCI single dose (10 µM) SRB screen; type: cell-based, human; details: breast cancer, 48 h
OVCAR-5 = experiment: NCI single dose (10 µM) SRB screen; type: cell-based, human; details: ovarian cancer, 48 h
HOP-62 = experiment: NCI single dose (10 µM) SRB screen; type: cell-based, human; details: non-small cell lung cancer, 48 h
NCI-H460 = experiment: NCI single dose (10 µM) SRB screen; type: cell-based, human; details: non-small cell lung cancer, 48 h
SNB-75 = experiment: NCI single dose (10 µM) SRB screen; type: cell-based, human; details: CNS cancer, 48 h
ACHN = experiment: NCI single dose (10 µM) SRB screen; type: cell-based, human; details: renal cancer, 48 h
SN12C = experiment: NCI single dose (10 µM) SRB screen; type: cell-based, human; details: renal cancer, 48 h
HT29 = experiment: NCI single dose (10 µM) SRB screen; type: cell-based, human; details: colon cancer, 48 h
HS578T = experiment: NCI single dose (10 µM) SRB screen; type: cell-based, human; details: breast cancer, 48 h
SW-620 = experiment: NCI single dose (10 µM) SRB screen; type: cell-based, human; details: colon cancer, 48 h
Bacillus subtilis = experiment: Agar well diffusion method; details: relative to ciprofloxacin
DU-145 = experiment: NCI single dose (10 µM) SRB screen; type: cell-based, human; details: prostate cancer, 48 h
Aspergillus flavus = experiment: Agar well diffusion method; details: relative to clotrimazole
786-0 = experiment: NCI single dose (10 µM) SRB screen; type: cell-based, human; details: renal cancer, 48 h
HCC-2998 = experiment: NCI single dose (10 µM) SRB screen; type: cell-based, human; details: colon cancer, 48 h
HOP-92 = experiment: NCI single dose (10 µM) SRB screen; type: cell-based, human; details: non-small cell lung cancer, 48 h
SK-OV-3 = experiment: NCI single dose (10 µM) SRB screen; type: cell-based, human; details: ovarian cancer, 48 h
Escherichia coli = experiment: Agar well diffusion method; details: relative to ciprofloxacin
CAKI-1 = experiment: NCI single dose (10 µM) SRB screen; type: cell-based, human; details: renal cancer, 48 h
OVCAR-8 = experiment: NCI single dose (10 µM) SRB screen; type: cell-based, human; details: ovarian cancer, 48 h
PC-3 = experiment: NCI single dose (10 µM) SRB screen; type: cell-based, human; details: prostate cancer, 48 h
Pseudomonas aeruginosa = experiment: Agar well diffusion method; details: relative to ciprofloxacin
MALME-3M = experiment: NCI single dose (10 µM) SRB screen; type: cell-based, human; details: melanoma, 48 h
Candida albicans = experiment: Agar well diffusion method; details: relative to clotrimazole
SK-MEL-5 = experiment: NCI single dose (10 µM) SRB screen; type: cell-based, human; details: melanoma, 48 h
HCT-15 = experiment: NCI single dose (10 µM) SRB screen; type: cell-based, human; details: colon cancer, 48 h
MDA-MB-435 = experiment: NCI single dose (10 µM) SRB screen; type: cell-based, human; details: melanoma, 48 h
NCI-H322M = experiment: NCI single dose (10 µM) SRB screen; type: cell-based; details: non-small cell lung cancer, 48 h
NCI-H226 = experiment: NCI single dose (10 µM) SRB screen; type: cell-based, human; details: non-small cell lung cancer, 48 h
KM12 = experiment: NCI single dose (10 µM) SRB screen; type: cell-based, human; details: colon cancer, 48 h
SK-MEL-28 = experiment: NCI single dose (10 µM) SRB screen; type: cell-based, human; details: melanoma, 48 h
UACC-257 = experiment: NCI single dose (10 µM) SRB screen; type: cell-based, human; details: melanoma, 48 h
K-562 = experiment: NCI single dose (10 µM) SRB screen; type: cell-based, human; details: leukaemia, 48 h
BT-549 = experiment: NCI single dose (10 µM) SRB screen; type: cell-based, human; details: breast cancer, 48 h

melting point: 121 to 122 °C
SMILES: CCCC1=C(C(=O)OCC)C(c2cccc(C#N)c2)C(C(=O)OC)=C(C)N1 (racemic) [Compound 2f, (±)-3-Ethyl 5-methyl 4-(3-cyanophenyl)-6-methyl-2-propyl-1,4-dihydropyridine-3,5-dicarboxylate]
GI% MDA-MB-231 (MDA-MB-231): – (Only GI% ≥ 10 are shown)
GI% SF-539 (SF-539): – (Only GI% ≥ 10 are shown)
GI% MOLT-4 (MOLT-4): 14%
GI% HL-60(TB) (HL-60(TB)): 11%
GI% OVCAR-4 (OVCAR-4): – (Only GI% ≥ 10 are shown)
Mean GI% (NCI 60 cancer cell lines): 1%
GI% M14 (M14): – (Only GI% ≥ 10 are shown)
GI% IGROV1 (IGROV1): – (Only GI% ≥ 10 are shown)
GI% SF-295 (SF-295): – (Only GI% ≥ 10 are shown)
GI% MCF7 (MCF7): – (Only GI% ≥ 10 are shown)
GI% A549/ATCC (A549/ATCC): – (Only GI% ≥ 10 are shown)
GI% UO-31 (UO-31): 13%
GI% COLO 205 (COLO 205): – (Only GI% ≥ 10 are shown)
GI% RXF 393 (RXF 393): – (Only GI% ≥ 10 are shown)
GI% SK-MEL-2 (SK-MEL-2): – (Only GI% ≥ 10 are shown)
GI% OVCAR-3 (OVCAR-3): – (Only GI% ≥ 10 are shown)
GI% UACC-62 (UACC-62): 21%
GI% LOX IMVI (LOX IMVI): – (Only GI% ≥ 10 are shown)
GI% RPMI-8226 (RPMI-8226): 12%
GI% SNB-19 (SNB-19): – (Only GI% ≥ 10 are shown)
GI% CCRF-CEM (CCRF-CEM): – (Only GI% ≥ 10 are shown)
GI% MDA-MB-468 (MDA-MB-468): – (Only GI% ≥ 10 are shown)
GI% EKVX (EKVX): – (Only GI% ≥ 10 are shown)
GI% SF-268 (SF-268): – (Only GI% ≥ 10 are shown)
GI% NCI-H23 (NCI-H23): – (Only GI% ≥ 10 are shown)
GI% A498 (A498): – (Only GI% ≥ 10 are shown)
GI% NCI-H522 (NCI-H522): – (Only GI% ≥ 10 are shown)
GI% U251 (U251): – (Only GI% ≥ 10 are shown)
GI% SR (SR): – (Only GI% ≥ 10 are shown)
GI% TK-10 (TK-10): – (Only GI% ≥ 10 are shown)
zone of inhibition at 1000 µg/mL (Staphylococcus aureus; Staphylococcus aureus, 24 h, read-out: Diameter of inhibition zone, S. aureus): 6 mm
% activity index, S. aureus (Staphylococcus aureus; relative to ciprofloxacin): 25%
GI% HCT-116 (HCT-116): 11%
GI% NCI/ADR-RES (NCI/ADR-RES): – (Only GI% ≥ 10 are shown)
GI% T-47D (T-47D): – (Only GI% ≥ 10 are shown)
GI% OVCAR-5 (OVCAR-5): – (Only GI% ≥ 10 are shown)
GI% HOP-62 (HOP-62): – (Only GI% ≥ 10 are shown)
GI% NCI-H460 (NCI-H460): – (Only GI% ≥ 10 are shown)
GI% SNB-75 (SNB-75): 37%
GI% ACHN (ACHN): – (Only GI% ≥ 10 are shown)
GI% SN12C (SN12C): – (Only GI% ≥ 10 are shown)
GI% HT29 (HT29): – (Only GI% ≥ 10 are shown)
GI% HS578T (HS578T): – (Only GI% ≥ 10 are shown)
GI% SW-620 (SW-620): – (Only GI% ≥ 10 are shown)
% activity index, B. subtilis (Bacillus subtilis): – (Values below 25 are of limited value and not shown as they refer either to inactive or non-diffusing compounds)
GI% DU-145 (DU-145): – (Only GI% ≥ 10 are shown)
% activity index, A. flavus (Aspergillus flavus): – (Values below 25 are of limited value and not shown as they refer either to inactive or non-diffusing compounds)
GI% 786-0 (786-0): – (Only GI% ≥ 10 are shown)
GI% HCC-2998 (HCC-2998): – (Only GI% ≥ 10 are shown)
GI% HOP-92 (HOP-92): – (Only GI% ≥ 10 are shown)
GI% SK-OV-3 (SK-OV-3): – (Only GI% ≥ 10 are shown)
% activity index, E. coli (Escherichia coli): – (Values below 25 are of limited value and not shown as they refer either to inactive or non-diffusing compounds)
GI% CAKI-1 (CAKI-1): 18%
GI% OVCAR-8 (OVCAR-8): – (Only GI% ≥ 10 are shown)
GI% PC-3 (PC-3): 23%
% activity index, P. aeruginosa (Pseudomonas aeruginosa): – (Values below 25 are of limited value and not shown as they refer either to inactive or non-diffusing compounds)
GI% MALME-3M (MALME-3M): – (Only GI% ≥ 10 are shown)
% activity index, C. albicans (Candida albicans): – (Values below 25 are of limited value and not shown as they refer either to inactive or non-diffusing compounds)
GI% SK-MEL-5 (SK-MEL-5): – (Only GI% ≥ 10 are shown)
GI% HCT-15 (HCT-15): – (Only GI% ≥ 10 are shown)
GI% MDA-MB-435 (MDA-MB-435): – (Only GI% ≥ 10 are shown)
GI% NCI-H322M (NCI-H322M): – (Only GI% ≥ 10 are shown)
GI% NCI-H226 (NCI-H226): – (Only GI% ≥ 10 are shown)
GI% KM12 (KM12): – (Only GI% ≥ 10 are shown)
GI% SK-MEL-28 (SK-MEL-28): – (Only GI% ≥ 10 are shown)
GI% UACC-257 (UACC-257): – (Only GI% ≥ 10 are shown)
GI% K-562 (K-562): – (Only GI% ≥ 10 are shown)
GI% BT-549 (BT-549): – (Only GI% ≥ 10 are shown)
